Where two headings read alike, the source gives them in different places.
Molecular target: T1, human growth hormone secretagogue receptor (hGHS-R1a) (Homo sapiens, UniProt Q92847)
T1 construct: purchased PerkinElmer BioSignal #RBHGHSM; host or cells: HEK-293, stably transfected
Assay: Competitive radioligand binding assay (ghrelin receptor), [125I]-ghrelin displacement on GHS-R/HEK 293 membranes;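 on Binding Activity at the Human Ghrelin Receptor (Ki): symbols B 10-100 nM C 0.1-1 µM D 1-10 µM F above 1 µM G above 10 µM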
Protocol: The competitive binding assay at the human growth hormone secretagogue receptor (hGHS-R1a) was carried out analogously to assays described in the literature.
Multiscreen Harvest plates-GF/C (Millipore, #MAHFC1H60) • 4. […] Bottom seal (Millipore, #MATAH0P00) • 7. […] Binding Buffer: 25 mM Hepes (pH 7.4), 1 mM CaCl2, 5 mM MgCl2, 2.5 mM EDTA, 0.4% BSA
Competition experiments were performed in a 300 μl filtration assay format. • 1. 220 μL of membranes diluted in binding buffer • 2. 40 μL of compound diluted in binding buffer • 3.
Compounds were provided frozen on dry ice at a stock concentration of 10 mM diluted in 100% DMSO and stored at −80° C. until the day of testing. On the test day, compounds were allowed to thaw at rt O/N and then diluted in assay buffer according to the desired test concentrations. Under these conditions, the maximal final DMSO concentration in the assay was 0.1%.
Plates were sealed with TopSeal-A, vortexed gently and incubated at rt for 30 min. The reaction was arrested by filtering samples through Multiscreen Harvest plates (pre-soaked in 0.5% polyethyleneimine) using a Tomtec Harvester, washed 9 times with 500 μL of cold 50 mM Tris-HCl (pH 7.4, 4° C.), and then plates were air-dried in a fumehood 30 min. A bottom seal was applied to the plates prior to the addition of 25 μL of MicroScint-0 to each well. […] Results were expressed as counts per minute (cpm).
Data were analyzed by GraphPad Prism (GraphPad Software, San Diego, Calif.) using […] non-linear regression analysis.
where total and non-specific binding represent the cpm obtained in the absence or presence of 1 μM ghrelin, respectively.
• 1. Binding performed on membranes prepared from HEK293 expressing the transfected, cloned human ghrelin receptor (hGHS-R1a). • 2. […] Ghrelin (unlabeled, 1 μM) was used to determine non-specific binding. • 4.

[1] = Table 3B, binding activity at the human ghrelin receptor, read-out: Ki
[2] = Binding activity at the human ghrelin receptor, [125I]-ghrelin displacement, read-out: Ki

T1 sequence (Q92847 whole entry): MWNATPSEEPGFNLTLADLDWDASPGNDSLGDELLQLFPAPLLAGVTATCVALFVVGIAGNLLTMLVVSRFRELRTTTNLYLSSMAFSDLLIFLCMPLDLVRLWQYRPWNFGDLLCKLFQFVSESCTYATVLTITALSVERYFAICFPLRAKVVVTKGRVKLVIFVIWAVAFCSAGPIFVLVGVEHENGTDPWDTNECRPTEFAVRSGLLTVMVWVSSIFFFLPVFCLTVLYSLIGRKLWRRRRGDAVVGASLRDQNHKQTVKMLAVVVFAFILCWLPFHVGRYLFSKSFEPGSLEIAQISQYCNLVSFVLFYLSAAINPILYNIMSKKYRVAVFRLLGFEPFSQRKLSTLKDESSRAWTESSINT

Ki [2]	Compound	other results
–	CCC(C)[C@@H]1NCCOc2ccccc2/C=C/CNC(=O)[C@H](Cc2ccc(F)c(F)c2)NC(=O)C2(CCCC2)NC1=O (some centres unmarked) [331a]	Ki [1]: 10 to 100 nM
–	CCC(C)C1NCCOc2ccccc2C=CCNC(=O)C(Cc2cccc(C(F)(F)F)c2)NC(=O)C2(CCCC2)NC1=O (centres unmarked) [332a]	Ki [1]: 10 to 100 nM
–	CCC(C)[C@@H]1NCCCc2ccccc2/C=C/CNC(=O)[C@@H](Cc2ccc(F)cc2)NC(=O)[C@@H](C)N(C)C1=O (some centres unmarked) [353a]	Ki [1]: 10 to 100 nM
–	CC(C)C[C@@H]1NCCOc2ccccc2/C=C/CNC(=O)[C@H](Cc2c[nH]cn2)NC(=O)C2(CCCC2)NC1=O [444a]	Ki (Table 3D, read-out: Ki): > 10000 nM
–	CCC[C@@H]1NCCOc2ccccc2CCCNC(=O)[C@@H](Cc2ccccc2)NC(=O)[C@H]2CCCN2C1=O [Compound 221]	Ki (Table 3E, read-out: Ki): 100 to 1000 nM; Ki ([125I]-ghrelin displacement, GHS-R/HEK 293 membranes, class symbols, read-out: Binding Activity at the Human Ghrelin Receptor (Ki)): 100 to 1000 nM
10 to 100 nM	CC(C)C[C@@H]1NCCOc2ccccc2/C=C/CNC(=O)[C@H](Cc2cccc3ccccc23)NC(=O)C2(CCCC2)NC1=O [compound 22]	–
100 to 1000 nM	CC[C@H](C)[C@@H]1NCCOc2ccccc2CCCNC(=O)[C@@H](Cc2cscn2)NC(=O)[C@@H](C)N(C)C1=O [compound 33]	–
> 10000 nM	CC(C)C[C@@H]1NCCOCCNC(=O)[C@H](Cc2ccccc2)NC(=O)C2(CCCC2)NC1=O [compound 44]	–
> 10000 nM	CCC[C@@H]1NC(=O)C2(CCCC2)NC(=O)[C@H](CC(C)C)NCCOc2ccccc2/C=C/CNC1=O [compound 48]	–
> 10000 nM	CCC[C@@H]1NCCOc2ccccc2CCCNC(=O)[C@@H](C)NC(=O)CN(C)C1=O [compound 49]	–
> 10000 nM	CCC[C@@H]1NCCOc2ccccc2CCCNC(=O)[C@@H](CCC(=O)O)NC(=O)CN(C)C1=O [compound 50]	–
> 10000 nM	CCC[C@@H]1NCCOc2ccccc2CCCNC(=O)CNC(=O)CN(C)C1=O [compound 51]	–
100 to 1000 nM	CCCC[C@H]1NC(=O)CN(C)C(=O)[C@H](CCC)NCCOc2ccccc2CCCNC1=O [compound 52]	–
> 10000 nM	CCC[C@@H]1NCCOc2ccccc2CCCNC(=O)[C@@H](CCCN)NC(=O)CN(C)C1=O [compound 53]	–
> 10000 nM	CCC[C@@H]1NCCOc2ccccc2CCCNC(=O)[C@@H](CO)NC(=O)CN(C)C1=O [compound 54]	–
1000 to 10000 nM	CCC[C@H]1NCCOc2ccccc2CCCNC(=O)[C@@H](Cc2ccccc2)NC(=O)CN(C)C1=O [compound 55]	–
> 10000 nM	CCC[C@H]1NCCOc2ccccc2CCCNC(=O)[C@H](Cc2ccccc2)NC(=O)CN(C)C1=O [compound 56]	–
100 to 1000 nM	CCC[C@@H]1NCCOc2ccccc2CCCNC(=O)[C@H](Cc2ccccc2)NC(=O)CN(C)C1=O [compound 57]	–
100 to 1000 nM	CCC[C@@H]1NCCOc2ccccc2CCCNC(=O)[C@@H](Cc2ccccc2)NC(=O)CNC1=O [compound 61]	–
1000 to 10000 nM	CCC[C@@H]1NCCOc2ccccc2CCCNC(=O)[C@@H](Cc2ccccc2)NC(=O)[C@H](CC(C)C)NC1=O [compound 62]	–
> 10000 nM	CCC[C@@H]1NCCOc2ccccc2CCCNC(=O)[C@@H](Cc2ccccc2)NC(=O)[C@@H](CC(C)C)NC1=O [compound 63]	–
> 10000 nM	CCC[C@@H]1NCCOc2ccccc2CCCNC(=O)[C@@H](Cc2ccccc2)NC(=O)[C@H](Cc2ccccc2)NC1=O [compound 64]	–
1000 to 10000 nM	CCC[C@@H]1NCCOc2ccccc2CCCNC(=O)[C@@H](Cc2ccccc2)NC(=O)[C@@H](Cc2ccccc2)NC1=O [compound 65]	–
100 to 1000 nM	CCC[C@@H]1NCCOc2ccccc2CCCNC(=O)[C@@H](Cc2ccccc2)NC(=O)C(C)(C)NC1=O [compound 66]	–
100 to 1000 nM	CCC[C@@H]1NCCOc2ccccc2CCCNC(=O)[C@@H](Cc2ccccc2)NC(=O)C2(CCCC2)NC1=O [compound 67]	–
1000 to 10000 nM	CCC[C@@H]1NCCOc2ccccc2CCCNC(=O)[C@@H](Cc2ccccc2)NC(=O)[C@H](CCCCN)NC1=O [compound 68]	–
> 10000 nM	CCC[C@@H]1NCCOc2ccccc2CCCNC(=O)[C@@H](Cc2ccccc2)NC(=O)[C@@H](CCCCN)NC1=O [compound 69]	–
> 10000 nM	CCC[C@@H]1NCCOc2ccccc2CCCNC(=O)[C@@H](Cc2ccccc2)NC(=O)[C@H](CCC(=O)O)NC1=O [compound 70]	–

Reference: US20180110824A1, “Macrocyclic Modulators of the Ghrelin Receptor” (Ocera Therapeutics, Inc., priority 2016, published 2018)
